# Data as given in ChEMBL document CHEMBL1125620, “Synthesis and biological evaluation of a series of substituted N-alkoxyimides and -amides as potential atypical antipsychotic agents” (J Med Chem, 1991).
# What was measured:
# Mus musculus = test: Inhibition of apomorphine induced mouse climbing, administered intraperitoneally; assay type: functional; settings: ip
# [1] = biological target: Serotonin 2 (5-HT2) receptor (Rattus norvegicus, UniProt P30994+P08909+P14842); test: Compound was measured for affinity at 5-hydroxytryptamine 2 receptor in rat cortical by [3H]spiroperidol displacement.
# [2] = biological target: T1, 5-hydroxytryptamine receptor 1A (Rattus norvegicus, UniProt P19327); test: Affinity for 5-hydroxytryptamine 1A receptor labeled with [3H]8-OH-DPAT radioligand in hippocampus tissue; assay type: tissue-based
# T1 sequence (P19327 whole entry): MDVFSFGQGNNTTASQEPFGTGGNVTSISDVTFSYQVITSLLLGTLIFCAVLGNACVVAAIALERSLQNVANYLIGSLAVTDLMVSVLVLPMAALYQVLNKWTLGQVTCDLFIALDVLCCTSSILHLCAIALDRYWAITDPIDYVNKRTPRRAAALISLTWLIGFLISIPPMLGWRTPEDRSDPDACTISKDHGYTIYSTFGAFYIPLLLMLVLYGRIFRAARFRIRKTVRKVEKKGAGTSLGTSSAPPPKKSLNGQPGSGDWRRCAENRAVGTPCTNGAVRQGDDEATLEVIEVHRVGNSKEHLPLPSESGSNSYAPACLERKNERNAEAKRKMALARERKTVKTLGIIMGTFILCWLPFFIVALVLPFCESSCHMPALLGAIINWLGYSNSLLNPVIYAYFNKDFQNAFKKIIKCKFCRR
# [3] = biological target: Sigma non-opioid intracellular receptor 1 (Rattus norvegicus, UniProt Q9R0C9); test: compound was measured as affinity for sigma receptor labeled with [3H]-SKF- […] radioligand in slide-mounted slices
# Chain of Sigma non-opioid intracellular receptor 1 (Q9R0C9 whole entry): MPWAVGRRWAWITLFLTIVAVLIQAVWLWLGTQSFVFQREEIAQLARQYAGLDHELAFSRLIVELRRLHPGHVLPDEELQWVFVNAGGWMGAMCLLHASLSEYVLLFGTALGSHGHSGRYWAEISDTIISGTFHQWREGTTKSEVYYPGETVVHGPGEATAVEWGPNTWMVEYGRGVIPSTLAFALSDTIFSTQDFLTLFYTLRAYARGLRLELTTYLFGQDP
# Rattus norvegicus [4] = test: In vivo activity administered intraperitoneally was determined by social interaction in rat at 1.0 mg/kg
# Rattus norvegicus [5] = test: In vivo activity was measured by the pole climb avoidance in rat; assay type: functional
# Rattus norvegicus [6] = test: In vivo activity administered intraperitoneally was determined by pole climb escape failures in rat; assay type: functional; settings: ip
# [7] = biological target: 5-hydroxytryptamine receptor 1B (Rattus norvegicus, UniProt P28564); test: compound was measured for affinity against 5-hydroxytryptamine 1B receptor labelled with [3H]5-HT radioligand in striatum tissue; assay type: tissue-based
# Chain of 5-hydroxytryptamine receptor 1B (P28564 whole entry): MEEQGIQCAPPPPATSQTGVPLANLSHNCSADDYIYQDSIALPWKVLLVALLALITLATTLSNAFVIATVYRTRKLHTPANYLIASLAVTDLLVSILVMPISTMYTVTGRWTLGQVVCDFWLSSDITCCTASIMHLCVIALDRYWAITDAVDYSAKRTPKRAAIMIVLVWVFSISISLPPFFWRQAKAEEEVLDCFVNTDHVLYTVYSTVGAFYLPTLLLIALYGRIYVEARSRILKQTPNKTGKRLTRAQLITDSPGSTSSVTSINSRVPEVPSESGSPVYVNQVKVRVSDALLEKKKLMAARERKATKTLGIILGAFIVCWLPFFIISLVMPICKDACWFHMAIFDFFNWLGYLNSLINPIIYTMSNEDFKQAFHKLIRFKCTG
# Rattus norvegicus [8] = test: In vivo activity administered intraperitoneally was determined by induction of catalepsy in rat at 40 mg/kg
# Rattus norvegicus [9] = test: In vivo activity administered orally was determined by intracranial self stimulation in rat; assay type: functional; settings: po
# Rattus norvegicus [10] = test: In vivo activity administered intraperitoneally was determined by induction of catalepsy in rat at 30 mg/kg
# Rattus norvegicus [11] = test: In vivo inhibition of amphetamine induced stereotypy in rat by the compound administered intraperitoneally at […]; assay type: functional
# Rattus norvegicus [12] = test: In vivo inhibition of apomorphine induced stereotypy in rat by the compound administered intraperitoneally; assay type: functional; settings: ip
# [13] = biological target: T2, Alpha adrenergic receptor 1A and 1B (Rattus norvegicus, UniProt P15823+P43140); test: compound was measured as affinity for Alpha-1 adrenergic receptor labeled with [3H]WB-4101 radioligand in whole brain tissue
# T2 sequence (P15823 whole entry): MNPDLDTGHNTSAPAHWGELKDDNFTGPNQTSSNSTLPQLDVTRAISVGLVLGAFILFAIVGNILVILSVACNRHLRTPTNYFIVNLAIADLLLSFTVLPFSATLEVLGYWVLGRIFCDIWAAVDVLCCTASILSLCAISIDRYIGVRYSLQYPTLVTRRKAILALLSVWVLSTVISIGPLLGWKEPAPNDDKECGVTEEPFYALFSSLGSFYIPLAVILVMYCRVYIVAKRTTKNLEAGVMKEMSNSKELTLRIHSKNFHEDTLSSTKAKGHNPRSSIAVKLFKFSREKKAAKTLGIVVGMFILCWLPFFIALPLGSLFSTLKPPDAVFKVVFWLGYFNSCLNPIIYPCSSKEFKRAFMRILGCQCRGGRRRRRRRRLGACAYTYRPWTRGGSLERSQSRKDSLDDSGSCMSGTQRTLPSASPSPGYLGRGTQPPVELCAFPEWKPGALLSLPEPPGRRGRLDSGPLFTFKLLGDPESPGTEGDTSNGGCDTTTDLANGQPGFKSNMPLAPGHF
# T2 sequence (P43140 whole entry): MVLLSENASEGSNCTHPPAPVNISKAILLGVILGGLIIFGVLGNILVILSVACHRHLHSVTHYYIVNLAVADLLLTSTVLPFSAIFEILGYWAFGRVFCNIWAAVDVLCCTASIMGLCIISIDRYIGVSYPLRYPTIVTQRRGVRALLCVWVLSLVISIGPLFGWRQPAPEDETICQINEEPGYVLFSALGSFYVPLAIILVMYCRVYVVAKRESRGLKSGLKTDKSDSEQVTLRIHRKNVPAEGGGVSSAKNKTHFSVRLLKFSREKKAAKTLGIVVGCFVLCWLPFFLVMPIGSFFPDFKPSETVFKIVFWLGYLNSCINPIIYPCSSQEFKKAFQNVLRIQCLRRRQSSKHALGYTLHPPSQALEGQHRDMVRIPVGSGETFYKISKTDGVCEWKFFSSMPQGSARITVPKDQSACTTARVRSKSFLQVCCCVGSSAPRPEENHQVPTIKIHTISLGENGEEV
# D(1A) dopamine receptor = D(1A) dopamine receptor (Rattus norvegicus, UniProt P18901); test: compound was measured as affinity for dopamine receptor D1 labeled with [3H]-SCH- 23390 radioligand in striatum tissue; assay type: tissue-based
# Chain of D(1A) dopamine receptor (P18901 whole entry): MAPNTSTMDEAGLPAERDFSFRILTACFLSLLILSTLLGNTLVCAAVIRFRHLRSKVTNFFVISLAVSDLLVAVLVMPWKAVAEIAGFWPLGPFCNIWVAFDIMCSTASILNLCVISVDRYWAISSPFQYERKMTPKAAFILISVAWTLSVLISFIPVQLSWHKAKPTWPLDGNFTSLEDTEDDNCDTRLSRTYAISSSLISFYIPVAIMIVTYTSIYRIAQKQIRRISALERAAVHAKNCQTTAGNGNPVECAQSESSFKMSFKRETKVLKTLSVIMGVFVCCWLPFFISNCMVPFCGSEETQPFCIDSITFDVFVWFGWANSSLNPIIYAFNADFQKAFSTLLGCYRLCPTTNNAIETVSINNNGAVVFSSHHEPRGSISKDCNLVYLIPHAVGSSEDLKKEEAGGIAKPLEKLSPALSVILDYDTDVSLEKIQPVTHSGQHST
# Rattus norvegicus [14] = test: In vivo activity administered intraperitoneally was determined by pole climb avoidance in rat; assay type: functional; settings: ip
# Rattus norvegicus [15] = test: In vivo activity administered intraperitoneally was determined by intracranial self stimulation in rat; assay type: functional; settings: ip
# Rattus norvegicus [16] = test: In vivo activity administered intraperitoneally was determined by social interaction of rat at […]; assay type: functional
# Rattus norvegicus [17] = test: In vivo activity administered intraperitoneally was determined by induction of catalepsy in rat at […]; assay type: functional
# D(2) dopamine receptor = D(2) dopamine receptor (Rattus norvegicus, UniProt P61169); test: Compound was measured for affinity at Dopamine receptor D2 labeled with [3H]spiroperidol radioligand in striatum tissue; assay type: tissue-based
# Chain of D(2) dopamine receptor (P61169 whole entry): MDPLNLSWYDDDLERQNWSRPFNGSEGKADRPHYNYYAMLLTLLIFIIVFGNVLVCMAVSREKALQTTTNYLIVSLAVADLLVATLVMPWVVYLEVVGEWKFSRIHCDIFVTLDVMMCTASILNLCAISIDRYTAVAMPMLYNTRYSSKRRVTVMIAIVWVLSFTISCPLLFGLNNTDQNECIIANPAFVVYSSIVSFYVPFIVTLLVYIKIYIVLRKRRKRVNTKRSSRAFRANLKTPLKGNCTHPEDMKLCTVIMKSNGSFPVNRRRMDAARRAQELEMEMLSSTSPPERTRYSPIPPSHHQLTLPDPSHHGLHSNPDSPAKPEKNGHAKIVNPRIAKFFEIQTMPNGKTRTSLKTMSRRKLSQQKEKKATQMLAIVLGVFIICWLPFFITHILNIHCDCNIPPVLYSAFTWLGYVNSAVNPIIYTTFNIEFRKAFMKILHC
# Rattus norvegicus [18] = test: In vivo inhibition of amphetamine induced stereotypy in rat by the compound administered intraperitoneally; assay type: functional; settings: ip
# Rattus norvegicus [19] = test: In vivo activity administered intraperitoneally was determined by induction of catalepsy in rat; assay type: functional; settings: ip
# Rattus norvegicus [20] = test: In vivo activity was measured by the intracranial self stimulation in rat; assay type: functional
# Rattus norvegicus [21] = test: Activity administered intraperitoneally was determined by social interaction of rat at […]; assay type: functional
structure (smiles),measurement,setting,value
Cc1cccc(N2CCN(CCCON3C(=O)CC4(CCCC4)CC3=O)CC2)c1C,ED50,Mus musculus,39.7 mg/kg
same,IC50,[1],250 nM
same,IC50,[2],170 nM
CSc1cccc(N2CCN(CCCON3C(=O)CC4(CCCC4)CC3=O)CC2)c1,ED50,Mus musculus,> 20 mg/kg
same,IC50,[2],50 nM
COc1ccccc1N1CCN(CCCON2C(=O)CC3(CCCC3)CC2O)CC1 (stereo unspecified),ED50,Mus musculus,> 20 mg/kg
same,IC50,[2],60 nM
COc1ccccc1N1CCN(CCON2C(=O)CC3(CCCC3)CC2=O)CC1,ED50,Mus musculus,> 20 mg/kg
same,IC50,[1],3200 nM
same,IC50,[2],370 nM
O=C1CC2(CCCC2)CC(=O)N1OCCCN1CCN(c2nsc3ccccc23)CC1,ED50,Mus musculus,5.7 mg/kg
same,IC50,[3],1100 nM
same,Increase,Rattus norvegicus [4],24%
same,ED50,Rattus norvegicus [5],2.5 mg/kg
same,ED50,Rattus norvegicus [6],> 20 mg/kg
same,IC50,[7],5530 nM
same,IC50,[1],20 nM
same,Catalepsy,Rattus norvegicus [8],83%
same,ED50,Rattus norvegicus [9],12.5 mg/kg
same,Catalepsy,Rattus norvegicus [10],33%
same,Inhibition,Rattus norvegicus [11],17%
same,IC50,[2],110 nM
same,ED50,Rattus norvegicus [12],35.4 mg/kg
same,IC50,[13],10 nM
same,IC50,D(1A) dopamine receptor,6600 nM
O=C1CC2(CCCC2)CC(=O)N1OCCCN1CCN(C2=NS(=O)(=O)c3ccccc32)CC1,ED50,Mus musculus,> 20 mg/kg
same,IC50,[1],> 20000 nM
same,IC50,[2],> 20000 nM
COc1ccccc1N1CCN(CCCON2CCC3(CCCC3)CC2=O)CC1,ED50,Mus musculus,> 20 mg/kg
same,IC50,[1],2700 nM
same,IC50,[2],70 nM
Cc1cccc(N2CCN(CCCON3C(=O)CC4(CCCC4)CC3=O)CC2)c1,ED50,Mus musculus,26.5 mg/kg
same,IC50,[1],390 nM
same,IC50,[2],90 nM
O=C1CC2(CCCC2)CC(O)N1OCCCN1CCN(c2nsc3ccccc23)CC1 (stereo unspecified),ED50,Mus musculus,> 20 mg/kg
same,IC50,[1],10 nM
same,IC50,[2],80 nM
CN1CCN(C2=Nc3cc(Cl)ccc3Nc3ccccc32)CC1 [CLOZAPINE],ED50,Mus musculus,8.1 mg/kg
same,ED50,Rattus norvegicus [14],13.1 mg/kg
same,ED50,Rattus norvegicus [6],> 80 mg/kg
same,ED50,Rattus norvegicus [15],9.1 mg/kg
Cc1ccccc1N1CCN(CCCON2C(=O)c3ccccc3C2=O)CC1,ED50,Mus musculus,> 20 mg/kg
O=C1c2ccccc2C(=O)N1OCCCN1CCN(c2cccc(Cl)c2)CC1,ED50,Mus musculus,> 20 mg/kg
Cc1cccc(N2CCN(CCCON3C(=O)c4ccccc4C3=O)CC2)c1,ED50,Mus musculus,> 20 mg/kg
O=C1CC2(CCCC2)CC(=O)N1CCCCN1CCN(c2nsc3ccccc23)CC1 [TIOSPIRONE],ED50,Mus musculus,0.84 mg/kg
same,Inhibition,Rattus norvegicus [16],34%
same,ED50,Rattus norvegicus [14],0.93 mg/kg
same,ED50,Rattus norvegicus [6],2.77 mg/kg
same,Inhibition,Rattus norvegicus [17],67%
same,ED50,Rattus norvegicus [15],0.124 mg/kg
same,ED50,Rattus norvegicus [12],3.7 mg/kg
O=C1c2ccccc2C(=O)N1OCCCN1CCN(c2ccc3ccccc3n2)CC1,ED50,Mus musculus,> 20 mg/kg
COc1ccccc1N1CCN(CCCON2C(=O)c3ccccc3C2=O)CC1,ED50,Mus musculus,> 20 mg/kg
same,IC50,D(2) dopamine receptor,> 20000 nM
same,IC50,[2],6900 nM
O=C1CC2(CCCC2)CC(=O)N1OCCCN1CCN(c2cccc(Cl)c2)CC1,ED50,Mus musculus,> 20 mg/kg
same,IC50,[2],40 nM
O=C1CC2(CCCC2)CC(=O)N1OCCCN1CCN(c2cccc(C(F)(F)F)c2)CC1,ED50,Mus musculus,> 20 mg/kg
same,IC50,[2],30 nM
O=C1c2ccccc2C(=O)N1OCCCN1CCN(c2cccc(C(F)(F)F)c2)CC1,ED50,Mus musculus,> 20 mg/kg
same,IC50,D(2) dopamine receptor,> 20000 nM
O=C1CC2(CCCC2)CC(=O)N1OCCCN1CCN(c2ccccc2Cl)CC1,ED50,Mus musculus,> 20 mg/kg
same,IC50,[2],220 nM
O=C1c2ccccc2C(=O)N1OCCCN1CCN(c2nsc3ccccc23)CC1,ED50,Mus musculus,> 20 mg/kg
same,IC50,[2],> 20000 nM
O=C1CC2(CCCC2)CC(=O)N1OCCCN1CCN(c2ccc3ccccc3n2)CC1,ED50,Mus musculus,> 20 mg/kg
O=C(CCCN1CCC(O)(c2ccc(Cl)cc2)CC1)c1ccc(F)cc1 [HALOPERIDOL],ED50,Mus musculus,0.25 mg/kg
same,ED50,Rattus norvegicus [18],0.215 mg/kg
same,ED50,Rattus norvegicus [14],0.53 mg/kg
same,ED50,Rattus norvegicus [6],7.3 mg/kg
same,ED50,Rattus norvegicus [19],0.659 mg/kg
same,ED50,Rattus norvegicus [20],0.077 mg/kg
same,ED50,Rattus norvegicus [12],0.31 mg/kg
O=C1CC2(CCCC2)CC(=O)N1OCCCN1CCN(c2ncccn2)CC1,ED50,Mus musculus,> 20 mg/kg
same,IC50,[2],380 nM
O=C1CC2(CCCC2)CC(=O)N1OCCN1CCN(c2nsc3ccccc23)CC1,ED50,Mus musculus,> 20 mg/kg
same,IC50,[1],240 nM
same,IC50,[2],970 nM
COc1ccccc1N1CCN(CCCON2C(=O)CC3(CCCC3)CC2=O)CC1,ED50,Mus musculus,11 mg/kg
same,IC50,[1],1190 nM
same,IC50,[2],110 nM
O=C1CC2(CCCC2)CC(=O)N1OCCN1CCN(c2ncccn2)CC1,ED50,Mus musculus,> 20 mg/kg
CSc1cccc(N2CCN(CCCON3C(=O)c4ccccc4C3=O)CC2)c1,ED50,Mus musculus,> 20 mg/kg
Cc1nc2n(c(=O)c1CCN1CCC(c3noc4cc(F)ccc34)CC1)CCCC2 [RISPERIDONE],ED50,Mus musculus,0.06 mg/kg
same,ED50,Rattus norvegicus [14],0.48 mg/kg
same,Inhibition,Rattus norvegicus [21],27%
same,ED50,Rattus norvegicus [6],1.3 mg/kg
same,ED50,Rattus norvegicus [19],5.7 mg/kg
same,ED50,Rattus norvegicus [15],0.13 mg/kg
same,ED50,Rattus norvegicus [12],3.2 mg/kg
O=C1CC2(CCCC2)CCN1OCCCN1CCN(c2nsc3ccccc23)CC1,ED50,Mus musculus,17.8 mg/kg
same,IC50,[1],10 nM
same,IC50,[2],30 nM
O=C1CC2(CCCC2)CC(=O)N1OCCCN1CCN(c2nc3ccccc3s2)CC1,ED50,Mus musculus,> 20 mg/kg
same,IC50,[1],8100 nM
same,IC50,[2],2200 nM
